In ChEMBL document CHEMBL1137946, “Synthesis and biological evaluation of (-)-laulimalide analogues” (Bioorg Med Chem Lett, 2004):
pIC50: −log10 of the molar value.

Tests used:
[1] = tested on: HT-29; assay: In vitro growth inhibitory activity against HT-29 human colon cancer cell line; format: functional, cell-based
[2] = tested on: MDA-MB-435; assay: In vitro growth inhibitory activity against MDA-MB-435 human breast cancer cell line; format: functional, cell-based

Compound	pIC50 [1]	pIC50 [2]
C=C1C[C@H](C)C[C@@H]2CC=C[C@@H](C/C=C/C(=O)O[C@H]([C@@H](O)/C=C/[C@@H]3CC(C)=CCO3)C/C=C/[C@@H](O)C1)O2	5.07	5.56
C=C1C[C@H](C)C[C@@H]2CC=C[C@@H](CCCC(=O)O[C@H]([C@H](/C=C/[C@@H]3CC(C)=CCO3)OC)C[C@@H]3O[C@H]3[C@@H](O)C1)O2	< 6.00	< 6.00
C=C1C[C@H](C)C[C@@H]2CC=C[C@@H](C/C=C\C(=O)O[C@H]([C@@H](O)/C=C/[C@@H]3CC(C)=CCO3)C[C@@H]3O[C@H]3[C@@H](OC(C)=O)C1)O2		7.64
C=C1C[C@H](C)C[C@@H]2CC=C[C@@H](C/C=C\C(=O)O[C@H]([C@H](/C=C/[C@@H]3CC(C)=CCO3)OC(C)=O)C[C@@H]3O[C@H]3[C@@H](O)C1)O2		7.04
C=C1C[C@H](C)C[C@@H]2CC=C[C@@H](C/C=C\C(=O)O[C@H]([C@@H](O)/C=C/[C@@H]3CC(C)=CCO3)C/C=C/[C@@H](O)C1)O2	6.02	6.54
C=C1C[C@H](C)C[C@@H]2CC=C[C@@H](C/C=C\C(=O)O[C@H]([C@@H](O)/C=C/[C@@H]3CC(C)=CCO3)C[C@@H]3O[C@H]3[C@@H](OC)C1)O2		< 6.00
C=C1C[C@H](C)C[C@@H]2CC=C[C@@H](C/C=C\C(=O)O[C@H]([C@@H](O)/C=C/[C@@H]3CC(C)=CCO3)C[C@H]3O[C@@H]3[C@H](OC(=O)c3ccc([N+](=O)[O-])cc3)C1)O2		< 6.00
C=C1C[C@H](C)C[C@@H]2CC=C[C@@H](C/C=C\C(=O)O[C@H]([C@H](/C=C/[C@@H]3CC(C)=CCO3)O[Si](C)(C)C(C)(C)C)C[C@@H]3O[C@H]3[C@@H](O)C1)O2		< 6.00
C=C1C[C@H](C)C[C@@H]2CC=C[C@@H](C/C=C\C(=O)O[C@H]([C@@H](O)/C=C/[C@@H]3CC(C)=CCO3)C/C=C/[C@H](O)C1)O2	5.57	6.10
C=C1C[C@H](C)C[C@@H]2CC=C[C@@H](C/C=C\C(=O)O[C@H]([C@H](/C=C/[C@@H]3CC(C)=CCO3)OC(C)=O)C[C@@H]3O[C@H]3[C@@H](OC(C)=O)C1)O2		6.54
C=C1CC(=N\OC)/C=C/C[C@@H]([C@@H](O)/C=C/[C@@H]2CC(C)=CCO2)OC(=O)/C=C\C[C@@H]2C=CC[C@@H](C[C@@H](C)C1)O2		< 6.00
C=C1C[C@H](C)C[C@@H]2CC=C[C@@H](C/C=C\C(=O)O[C@H]([C@@H](O)/C=C/[C@@H]3CC(C)=CCO3)C[C@@H]3O[C@H]3[C@H](OC(=O)OC)C1)O2		6.37
C=C1C[C@H](C)C[C@@H]2CC=C[C@@H](CC#CC(=O)O[C@H]([C@H](/C=C/[C@@H]3CC(C)=CCO3)OC)C[C@@H]3O[C@H]3[C@@H](O)C1)O2	< 6.00	< 6.00
C=C1C[C@H](C)C[C@@H]2CC=C[C@@H](C/C=C\C(=O)O[C@H]([C@@H](O)/C=C/[C@@H]3CC(C)=CCO3)C[C@@H]3O[C@H]3[C@H](OC(=O)c3ccc([N+](=O)[O-])cc3)C1)O2		7.43
C=C1C[C@H](C)C[C@@H]2CC=C[C@@H](C/C=C\C(=O)O[C@H]([C@@H](O)/C=C/[C@@H]3CC(C)=CCO3)C[C@@H]3O[C@H]3[C@H](OC(=O)N(C)C)C1)O2		6.22
C=C1C[C@H](C)C[C@@H]2CC=C[C@@H](C/C=C\C(=O)O[C@H]([C@@H](O)/C=C/[C@@H]3CC(C)=CCO3)C[C@H]3O[C@@H]3[C@H](O)C1)O2		6.75
C=C1CC(=O)/C=C/C[C@@H]([C@@H](O)/C=C/[C@@H]2CC(C)=CCO2)OC(=O)/C=C\C[C@@H]2C=CC[C@@H](C[C@@H](C)C1)O2		< 6.00
C=C1C[C@H](C)C[C@@H]2CC=C[C@@H](C/C=C\C(=O)O[C@H]([C@H](/C=C/[C@@H]3CC(C)=CCO3)OC)C[C@@H]3O[C@H]3[C@@H](O)C1)O2	6.23	6.62
C=C1C[C@H](C)C[C@@H]2CC=C[C@@H](C/C=C/C(=O)O[C@H]([C@@H](O)/C=C/[C@@H]3CC(C)=CCO3)C/C=C/[C@H](O)C1)O2	5.02	5.37
C=C1C[C@H](C)C[C@@H]2CC=C[C@@H](C/C=C\C(=O)O[C@H]([C@@H](O)/C=C/[C@@H]3CC(C)=CCO3)C[C@@H]3O[C@H]3[C@@H](O)C1)O2 [FIJIANOLIDE B]	8.16	8.64
